Paper PMC3606118, “Salvianolic Acid A, a Novel Matrix Metalloproteinase-9 Inhibitor, Prevents Cardiac Remodeling in Spontaneously Hypertensive Rats” (PLoS ONE, 2013)

Assays:
MMP-9 CD = target: T1, MMP-9 CD (Homo sapiens, UniProt P14780, DEL217-390); assay: Real time binding by surface plasmon resonance (Biacore); details: steady state affinity fit model; immobilized MMP-9 CD, 25°C; read-out: equilibrium dissociation constant (KD)
T1 construct: corresponding to residues 107–216 and 391–444; made in house
T1 sequence (P14780 with tags, fused parts or gaps DEL217-390 limits assumed): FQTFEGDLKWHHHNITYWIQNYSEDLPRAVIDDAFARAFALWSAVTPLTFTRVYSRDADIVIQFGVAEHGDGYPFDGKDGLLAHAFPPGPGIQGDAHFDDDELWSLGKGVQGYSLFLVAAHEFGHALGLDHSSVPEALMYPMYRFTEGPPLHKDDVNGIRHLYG
Description: DNA fragments encoding the catalytic domain of MMP-9 (MMP-9 CD, corresponding to residues 107–216 and 391–444) were constructed and subcloned into a pET-15b vector (Novagen). […]. Surface plasmon resonance analysis was performed using Biacore 3000 (Biacore AB). In brief, MMP-9 CD protein (5.8 µmol/L) in 10 mmol/L sodium acetate buffer (pH 3.73) was covalently immobilized on the hydrophilic carboxymethylated dextran matrix of the CM5 sensor chip (BIAcore AB) using standard primary amine coupling procedure. Phenolic acid at various concentrations in HBS-EP running buffer (10 mmol/L HEPES pH 7.4, 150 mmol/L NaCl, 3.4 mmol/L EDTA and 0.005% surfactant P20) were injected at a constant flow rate of 30 µL/min at 25°C. All data were analyzed by BIAevaluation software and the sensorgrams were processed by automatic correction for nonspecific bulk refractive index effects.

[1] = system: neonatal cardiac fibroblasts; assay: Myofibroblast transformation (α-SMA immunofluorescence) induced by MMP-9 CD; type: cell-based, Wistar rats; details: 1 or 10 µmol/L SalA, 200 nmol/L MMP-9 CD, 24 h
Description: (§1) Primary cardiac fibroblast was obtained from neonatal rats and National Institutes of Health (NIH) Guide for the Care and Use of Laboratory Animals was followed throughout. Wistar rats (2–4 day old) were sacrificed by cervical dislocation; ventricles were minced and digested with 0.1% trypsin at 37°C for 8 min. The liberated cells were collected by centrifugations; non-digested chunk materials were further digested in 0.1% trypsin for an additional 8 min. This digestion procedure was repeated 3–4 times. All the liberated cells were pelleted by centrifugation at 1,000 rpm for 10 min, re-suspended in DMEM containing 10% fetal bovine serum (FBS), and cultured in a 100-mm noncoated culture flask at 37°C with 5% CO2 for 2 h. Adherent cardiac fibroblasts were collected and maintained in DMEM supplemented with 10% FBS, 100 U/mL penicillin, 100 µg/mL streptomycin [12]. Cardiac fibroblasts were treated by vehicle (Con); 200 nmol/L MMP-9 CD (MMP-9); 200 nmol/L MMP-9 CD plus 1 µmol/L SalA [MMP-9/SalA(1)]; or 200 nmol/L MMP-9 CD plus 10 µmol/L SalA [MMP-9/SalA(10)] for the following research. All the detections were conducted after 24 h treatment.
α-SMA expression was used to evaluate the effect of SalA on myofibroblast transformation from fibroblast induced by MMP-9 CD. Neonatal cardiac fibroblasts were cultured on glass slides until reaching ∼70% confluence. […]

[2] = system: neonatal cardiac fibroblast; assay: Multiplex cytokine assay (Procarta) in cardiac fibroblast supernatants; type: cell-based, Wistar rats; details: 1 or 10 µmol/L SalA, 24 h
Description: as §1
Procarta cytokine profiling kit (Panomics, CA, USA) was used to simultaneously detect 3 different rat cytokines in the cell culture supernatants, according to manufacturer’s instruction. Briefly, 50 µL antibody beads were added to each well of the Filter plate, washed with Wash buffer. Fifty microliter cell culture supernatant was then added to each well, incubated for at least 1 h at room temperature, and washed with Wash buffer. Afterwards, 25 µL per well of the Detection Antibody was added and the Filter plate was shaken at 500 rpm for 30 min at room temperature. After adding Sreptavidin-PE, the signals were detected using a Luminex 200 instrument (Bio-Rad, CA, USA). The cytokines included in the present study were intercellular adhesion molecule (ICAM), interleukin-6 (IL-6), tumor necrosis factor-α (TNF-α and soluble vascular cell adhesion molecule-1 (sVCAM-1).

[3] = system: H9c2 cells overexpressing MMP-9 (pDEST-MMP9); assay: Transwell migration of H9c2 cells overexpressing MMP-9; type: cell-based, Rat; details: pDEST-MMP9 untreated 157.4±10.2, pDEST 74.6±8.9
Description: Transwell assay was employed to evaluate effects of SalA on neonatal cardiac fibroblast migration induced by MMP-9 CD. Twenty thousand cells in 200 µL culture medium containing various concentrations of SalA were loaded onto PET track-etched membrane in modified Boyden chambers (BD Falcon Cell Culture Insert, BD), and same medium containing MMP-9 CD (200 nmol/L) was added to the lower side of the migration chamber. After incubating for 24 h, migrated cells (in the lower side of migration chamber) were stained with 0.1% crystal violet and counted with a microscope at 200 X magnification. Five to six view fields were counted on each membrane. Migration is expressed as the mean value of total number of migrated cells per field. DNA cloning using Gateway technology was carried out according to manufacturer’s instructions. Full-length MMP-9 cDNA (MGC-12688) was first subcloned into entry vector pDONR^TM221, followed by recombination reaction between the attL-containing pDONR^TM221 vector and attR-containing destination pDEST vector (Invitrogen, Carlsbad, CA, USA). […] Stable H9c2 cell line was generated by selection with 2 mg/mL G418 (denoted as pDEST-MMP9) and maintained in 0.75 mg/mL G418, and expression of MMP-9 was evaluated using zymography assay. […]

## O=C(/C=C/c1ccc(O)c(O)c1/C=C/c1ccc(O)c(O)c1)O[C@H](Cc1ccc(O)c(O)c1)C(=O)O [SalA, salvianolic acid A]
MMP-9 CD
  Kd: 800 nM
[1]
  α-SMA up-regulation (myofibroblast transformation) induced by MMP-9 CD: reversed the effects of MMP-9 CD
[2]
  ICAM secretion induced by MMP-9 CD: inhibition
  IL-6 secretion induced by MMP-9 CD: inhibition
  TNF-α secretion induced by MMP-9CD: No significant inhibitory effect
  sVCAM-1 secretion induced by MMP-9 CD: inhibition
[3]; 1 µmol/L SalA
  migrated cells: 84.4±17.0 cells per field
[3]; 10 µmol/L SalA
  migrated cells: 42.3±8.9 cells per field
